In PubChem BioAssay (NCI):
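Each compound was tested at five concentrations against cells in 96-well plates for 48 hours. Definition used: TGI = concentration required for complete inhibition of growth.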

Legend:
Assay in all cases: NCI anticancer screen, dose series, 48 h
DMS 273 small cell lung = test system: DMS 273 small cell lung
SF-539 CNS = test system: SF-539 CNS
HOP-18 NSCLC = test system: HOP-18 NSCLC
SNB-75 CNS = test system: SNB-75 CNS
MALME-3M melanoma = test system: MALME-3M melanoma
NCI-H522 lung = test system: NCI-H522 lung
HCC-2998 colon = test system: HCC-2998 colon
K-562 leukemia = test system: K-562 leukemia
NCI-H23 lung = test system: NCI-H23 lung
DMS 114 small cell lung = test system: DMS 114 small cell lung
ACHN renal = test system: ACHN renal
M19-MEL melanoma = test system: M19-MEL melanoma
KM20L2 colon = test system: KM20L2 colon
KM12 colon = test system: KM12 colon
MDA-N = test system: MDA-N

Compound | TGI (DMS 273 small cell lung) | TGI (SF-539 CNS) | TGI (HOP-18 NSCLC) | TGI (SNB-75 CNS) | TGI (MALME-3M melanoma) | TGI (NCI-H522 lung) | TGI (HCC-2998 colon) | TGI (K-562 leukemia) | TGI (NCI-H23 lung) | TGI (DMS 114 small cell lung) | TGI (ACHN renal) | TGI (M19-MEL melanoma) | TGI (KM20L2 colon) | TGI (KM12 colon) | TGI (MDA-N)
O=C1c2ccccc2N2OC3(N4CCOCC4)CCCC3C12c1ccccc1 (stereo not given) | > 100 µM | > 100 µM | > 100 µM | > 100 µM | > 100 µM | > 100 µM | > 100 µM | > 100 µM | > 100 µM | > 100 µM | > 100 µM | > 100 µM | > 100 µM |  | 
O=C(c1ccccc1)[C@H]1Nc2ccc(Cl)cc2[C@H]2CCC[C@@H]12 | > 100 µM | > 100 µM | 59.6 µM | > 100 µM | 51.3 µM | 59.9 µM | > 100 µM | 64.5 µM | 78 µM | > 100 µM | 57.9 µM | > 100 µM | > 100 µM | > 100 µM | 
CN1CCOC(C(NC(=O)c2ccccc2)c2ccccc2)C1=O (stereo not given) | > 100 µM | > 100 µM | > 100 µM | > 100 µM | > 100 µM | > 100 µM | > 100 µM | > 100 µM | > 100 µM |  | > 100 µM | > 100 µM | > 100 µM | > 100 µM | 
C1CCC(N=C2N(C3CCCCC3)C(=NC3CCCCC3)N2C2CCCCC2)CC1 | > 100 µM |  | > 100 µM | > 100 µM | > 100 µM | > 100 µM | > 100 µM | > 100 µM | > 100 µM | > 100 µM | > 100 µM | > 100 µM | > 100 µM | > 100 µM | 
CCCCCCCCOCC(COC(=O)CCCCCCC)OC(=O)CCCCCCC (stereo not given) | > 100 µM |  | > 100 µM |  | > 100 µM |  | > 100 µM | > 100 µM | > 100 µM | > 100 µM | > 100 µM | > 100 µM | > 100 µM |  | 
CC(C)(CN1CCCCC1)C(=O)/C=C/c1ccc(Br)cc1 | 4.92 µM | 4.96 µM | 6.83 µM | 14.9 µM | 17.4 µM | 3.98 µM | 31.7 µM | 8.95 µM | 9.11 µM | 3.44 µM | 14.5 µM | > 51.8 µM | 6.85 µM | 11.9 µM | 
O=C1CC(c2ccc(Cl)cc2)=Nc2ccccc2N1 | > 100 µM | > 100 µM | > 100 µM | 50.2 µM | > 100 µM | > 100 µM | > 100 µM | > 100 µM | > 100 µM | > 100 µM | > 100 µM | > 100 µM | > 100 µM | > 100 µM | 
COC(=O)[C@@]12OC[C@]34C([C@@H](O)C1O)[C@@]1(C)CC(=O)C(OC(=O)CC(C)C(F)(F)F)=C(C)C1C[C@H]3OC(=O)[C@H](O)[C@H]42 (stereo not given in full) | 11.2 µM | 10.9 µM | 29.2 µM | 31.4 µM | 3.69 µM | 24.5 µM | 11 µM | > 62.5 µM | 8.69 µM | 18.5 µM | > 62.5 µM | 6.25 µM | > 62.5 µM | > 62.5 µM | 
NNC(=O)C(=O)NN=C(C(Cl)(Cl)CO)C(Cl)(Cl)CO | > 100 µM | 61.2 µM | > 100 µM | 86.8 µM | 44.4 µM | 25 µM | > 100 µM | > 100 µM | 92.9 µM |  | > 100 µM | 46.8 µM | > 100 µM | > 100 µM | 
O=C(Nn1c(-c2ccccc2)nc2ccccc2c1=O)c1ccc(Cl)cc1 |  | > 100 µM |  | > 100 µM | > 100 µM | > 100 µM | > 100 µM | > 100 µM | > 100 µM |  | > 100 µM |  |  | > 100 µM | > 100 µM
COc1ccc(-c2c(C3=NCCCN3)nnn2-c2ccccc2)cc1 | > 100 µM | > 100 µM | > 100 µM | > 100 µM | > 100 µM | > 100 µM | > 100 µM | > 100 µM | > 100 µM | > 100 µM | > 100 µM | > 100 µM | > 100 µM | > 100 µM | 
C1CSCCSCCCS[C@@H]2CCCCC2SC1 (stereo not given in full) | > 100 µM | > 100 µM | > 100 µM | > 100 µM | > 100 µM | > 100 µM | > 100 µM | 96.1 µM | > 100 µM | 65.4 µM | > 100 µM | > 100 µM | > 100 µM | > 100 µM | 
CSC(=O)/C=C1\SS/C(=C\C(=O)SC)S1 |  | 6.93 µM |  | 10.5 µM | 4.6 µM | 6.34 µM | 3.33 µM | > 100 µM | 27.6 µM |  | 10.2 µM |  |  | 13 µM | 8.37 µM
S=C1Cc2c(-c3ccccc3)cc(-c3cccc(Cl)c3)nc2-c2ccccc2N1 |  | 8.54 µM |  | 5.86 µM | > 24.5 µM | 13.1 µM | 18.7 µM | > 100 µM | 21.2 µM |  | 3.89 µM |  |  | > 100 µM | 26.5 µM
O=c1cc(Nc2cccc(O)c2)[nH]c(=O)[nH]1 |  | > 100 µM |  | > 100 µM | > 100 µM | > 100 µM | > 100 µM | > 100 µM | > 100 µM |  | > 100 µM |  |  | > 100 µM | > 100 µM
CCOC(=O)/C(=C/c1ccccn1)C(=O)c1ccccc1 | 27.3 µM | 31 µM | 32.7 µM | 27.5 µM | 27.3 µM | 13.8 µM | 31.3 µM | 85 µM | 30.5 µM | 28.5 µM | > 56.2 µM | 31.3 µM | 51.6 µM | 26.4 µM | 
